Measured values: ChEMBL document CHEMBL1156943, “Toward the development of potent and selective bisubstrate inhibitors of protein arginine methyltransferases” (Bioorg Med Chem Lett, 2010)

Experiments:
[1] = biological target: T1, Protein arginine N-methyltransferase 1 (Homo sapiens, UniProt Q99873); assay: Inhibition of GST-fused human recombinant PRMT1 after 90 mins by SDS-PAGE based scintillation counting
Target sequence in this assay (Q99873 whole entry, the tested form may be a part): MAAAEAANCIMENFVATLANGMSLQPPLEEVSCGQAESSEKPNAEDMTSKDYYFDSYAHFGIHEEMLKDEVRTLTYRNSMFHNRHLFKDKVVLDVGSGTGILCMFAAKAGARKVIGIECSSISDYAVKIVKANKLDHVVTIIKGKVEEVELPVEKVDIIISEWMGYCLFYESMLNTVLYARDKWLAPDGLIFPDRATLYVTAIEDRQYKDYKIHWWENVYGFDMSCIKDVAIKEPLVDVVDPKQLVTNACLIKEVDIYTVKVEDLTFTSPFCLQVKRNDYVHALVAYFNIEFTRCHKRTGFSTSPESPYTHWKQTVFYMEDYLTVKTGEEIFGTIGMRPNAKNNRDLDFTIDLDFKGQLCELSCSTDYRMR

[2] = biological target: T2, Histone-lysine N-methyltransferase SETD7 (Homo sapiens) (UniProt Q8WTS6); assay: Inhibition of GST-fused human recombinant SET7 at 100 uM after 90 mins by SDS-PAGE based scintillation counting
T2 sequence (whole entry): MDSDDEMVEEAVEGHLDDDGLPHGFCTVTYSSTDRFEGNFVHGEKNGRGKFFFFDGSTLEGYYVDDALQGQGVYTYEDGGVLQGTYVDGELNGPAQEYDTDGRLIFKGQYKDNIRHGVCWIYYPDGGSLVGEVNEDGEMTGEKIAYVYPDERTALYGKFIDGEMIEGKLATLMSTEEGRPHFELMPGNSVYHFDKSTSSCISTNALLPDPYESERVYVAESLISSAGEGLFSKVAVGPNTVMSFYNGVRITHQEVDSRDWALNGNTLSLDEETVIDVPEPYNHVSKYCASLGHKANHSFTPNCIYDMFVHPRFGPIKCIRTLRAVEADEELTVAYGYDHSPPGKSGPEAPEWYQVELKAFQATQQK

[3] = biological target: T1, Protein arginine N-methyltransferase 1; assay: Inhibition of GST-fused human recombinant PRMT1 at 100 uM after 90 mins by SDS-PAGE based scintillation counting
Target sequence in this assay (Q99873 whole entry, looked up, the tested form may be a part): as the sequence (Q99873 whole entry, the tested form may be a part) above

[4] = biological target: T3, Histone-lysine N-methyltransferase SETD7 (Homo sapiens, UniProt Q8WTS6); assay: Inhibition of GST-fused human recombinant SET7 after 90 mins by SDS-PAGE based scintillation counting
T3 sequence (Q8WTS6 whole entry): T2 sequence (whole entry)

| Compound | IC50 [1] [µM] | inhibition [2] [%] | inhibition [3] [%] | IC50 [4] [µM] |
| --- | --- | --- | --- | --- |
| N=C(N)NCCCCCN(CC[C@H](N)C(=O)O)C[C@H]1O[C@@H](n2cnc3c(N)ncnc32)[C@H](O)[C@@H]1O |  | 55 |  |  |
| Nc1ncnc2c1ncn2[C@@H]1O[C@H](C[C@@H](N)CC[C@H](N)C(=O)O)[C@@H](O)[C@H]1O [SINEFUNGIN] |  |  |  | 2.5 |
| N=C(N)NCCn1cc(CN(CC[C@H](N)C(=O)O)C[C@H]2O[C@@H](n3cnc4c(N)ncnc43)[C@H](O)[C@@H]2O)nn1 |  | > 50 | > 50 |  |

The next lines start with results.

| IC50 [1] [µM] | inhibition [2] [%] | inhibition [3] [%] | Compound | IC50 [4] [µM] |
| --- | --- | --- | --- | --- |
| 6.2 | 56.5 |  | N=C(N)NCCCN(CC[C@H](N)C(=O)O)C[C@H]1O[C@@H](n2cnc3c(N)ncnc32)[C@H](O)[C@@H]1O |  |
|  | 63 | 77 | C#CCN(CC[C@H](NC(=O)OC(C)(C)C)C(=O)OC(C)(C)C)C[C@H]1O[C@@H](n2cnc3c(N)ncnc32)[C@@H]2OC(C)(C)O[C@@H]21 |  |
| 2.9 | 49 |  | N=C(N)NCCCCN(CC[C@H](N)C(=O)O)C[C@H]1O[C@@H](n2cnc3c(N)ncnc32)[C@H](O)[C@@H]1O |  |
|  | 75 | 50 | C#CCN(CC[C@H](N)C(=O)O)C[C@H]1O[C@@H](n2cnc3c(N)ncnc32)[C@H](O)[C@@H]1O |  |
